Test results as given in patent US20160011220A1, “Systems and Methods to Quantify Analytes in Keratinized Samples” (PURDUE PHARMA L.P., priority 2012, published 2016).

Experiments:
[1] = Stability of hair levels among individuals on stable doses of opioids, visit 1 vs visit 2 (excluding PRN dose); assay type: in vivo, human; details: hair level at visit 1 vs hair level at visit 2
From the text: The study includes 2 study visits approximately 60 days apart. The second visit allowable range is between 45 and 75 days after the first visit. Patients submit hair and urine samples at both study visits
The enrolled subjects are current, past or new users of prescribed opioid analgesic regimens in either (i) the past 30 days, (ii) the past 31 to 120 days or were not previously prescribed an opioid regimen. All opioid analgesic regimens are self-reported.
E. Assessment of the Stability of Hair Levels Among Individuals on Stable Doses of Opioids (Excluding PRN Dose)
Also shown in Table 1B and the graphs is data from a sub-population of tested subjects, which excluded patients where the start date of the regimen was within the 90 day window of the enrollment date.

[2] = Relationship between prescribed opioid dose and hair levels (excluding PRN dose); assay type: in vivo, human
[3] = excluding patients whose prescription started less than 90 days before enrollment (n = 361)

SMILES	R (correlation coefficient) ([1]; all interim sample (n = 411))	R-Squared ([1]; all interim sample (n = 411))	R (correlation coefficient) [1, 3]	R-Squared [1, 3]	total variation in the hair levels explained by the linear relationship between total daily dose and hair levels (coefficient of determination) [2]
COc1ccc2c3c1O[C@H]1C(=O)CC[C@@]4(O)[C@@H](C2)N(C)CC[C@]314 [Oxycodone, oxycodone]	0.959	0.920	0.960	0.922	approximately 55%
COc1ccc2c3c1O[C@H]1C(=O)CC[C@H]4[C@@H](C2)N(C)CC[C@]314 [Hydrocodone, hydrocodone]	0.880	0.775	0.883	0.781	–
CN1CC[C@]23c4c5ccc(O)c4O[C@H]2[C@@H](O)C=C[C@H]3[C@H]1C5 [Morphine, morphine]	0.789	0.623	0.974	0.949	–
